# In ChEMBL document CHEMBL1150342, “Novel 3-carboxamide-coumarins as potent and selective FXIIa inhibitors” (J Med Chem, 2008):
# Active and inactive are the calls of the source. No cut-off for these calls is given here. Non-standard residues stand in square brackets, D forms with d. Residues, ends and D or L forms follow the SMILES beside them. *: point of attachment. CH2Cl = ClC*
# How the values were obtained:
# Coagulation factor XII = biological target: T1, Coagulation factor XII (Homo sapiens, UniProt P00748); experiment: Inhibition of human factor 12a
# T1 sequence (P00748 whole entry): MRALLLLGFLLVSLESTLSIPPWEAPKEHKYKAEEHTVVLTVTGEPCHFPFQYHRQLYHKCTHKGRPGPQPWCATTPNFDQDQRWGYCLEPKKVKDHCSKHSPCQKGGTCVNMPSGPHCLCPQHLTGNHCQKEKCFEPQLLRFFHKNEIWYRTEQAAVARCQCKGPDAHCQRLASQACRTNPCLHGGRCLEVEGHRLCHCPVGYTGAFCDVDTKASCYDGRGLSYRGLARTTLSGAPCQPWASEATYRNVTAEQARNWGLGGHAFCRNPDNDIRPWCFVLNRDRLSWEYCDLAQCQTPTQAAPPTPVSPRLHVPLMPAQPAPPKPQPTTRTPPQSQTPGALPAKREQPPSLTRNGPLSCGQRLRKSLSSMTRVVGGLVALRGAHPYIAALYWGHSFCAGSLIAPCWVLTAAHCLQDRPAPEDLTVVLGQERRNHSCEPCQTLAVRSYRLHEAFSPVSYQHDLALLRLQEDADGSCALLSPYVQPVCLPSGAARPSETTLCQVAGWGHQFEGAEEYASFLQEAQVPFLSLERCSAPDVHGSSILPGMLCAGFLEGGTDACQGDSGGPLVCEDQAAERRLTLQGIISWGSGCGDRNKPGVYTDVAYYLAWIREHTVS
# Prothrombin [1] = biological target: T2, Prothrombin (Homo sapiens, UniProt P00734); experiment: Inhibition of human thrombin at 50 uM
# [2] = biological target: T3, Coagulation factor XII (Homo sapiens) (UniProt P00748); experiment: Inhibition of human factor 12a assessed as residual activity at 49.5 uM; conditions: TDE = time-dependent effect
# T3 sequence (whole entry): T1 sequence (P00748 whole entry)
# Plasma kallikrein [3] = biological target: T4, Plasma kallikrein (Homo sapiens, UniProt P03952); experiment: Inhibition of human kallikrein at 50 uM
# Coagulation factor X [4] = biological target: T5, Coagulation factor X (Homo sapiens, UniProt P00742); experiment: Inhibition of human factor 10a at 50 uM
# [5] = biological target: Coagulation factor VII/tissue factor (Homo sapiens) (UniProt P08709+P13726); experiment: Inhibition of human tissue factor/factor 7a at 50 uM
# [6] = biological target: Coagulation factor VII/tissue factor (Homo sapiens, UniProt P08709); experiment: Inhibition of human tissue factor/factor 7a; assay type: protein-complex assay
# Prothrombin [7] = biological target: T2, Prothrombin; experiment: Inhibition of human thrombin
# [8] = biological target: T3, Coagulation factor XII (Homo sapiens); experiment: Inhibition of human factor 12a at 50 uM
# Coagulation factor X [9] = biological target: T5, Coagulation factor X; experiment: Inhibition of human factor 10a
# Plasma kallikrein [10] = biological target: T4, Plasma kallikrein; experiment: Inhibition of human kallikrein
# Sequence of Coagulation factor VII/tissue factor (P08709 61-212 limits assumed): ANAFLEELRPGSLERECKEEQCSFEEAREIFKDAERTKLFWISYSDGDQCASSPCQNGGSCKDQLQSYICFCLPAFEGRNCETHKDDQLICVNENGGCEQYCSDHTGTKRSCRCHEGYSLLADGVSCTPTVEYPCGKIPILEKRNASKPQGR
# Sequence of Coagulation factor VII/tissue factor (P08709 213-466 limits assumed): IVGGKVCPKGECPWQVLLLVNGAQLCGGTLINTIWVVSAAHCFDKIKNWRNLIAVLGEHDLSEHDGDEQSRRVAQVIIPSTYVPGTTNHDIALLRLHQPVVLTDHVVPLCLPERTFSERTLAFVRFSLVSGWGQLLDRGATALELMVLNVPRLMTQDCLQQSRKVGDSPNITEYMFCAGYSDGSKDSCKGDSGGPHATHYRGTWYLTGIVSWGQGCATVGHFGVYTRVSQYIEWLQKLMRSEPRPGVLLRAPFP
# Sequence of Coagulation factor VII/tissue factor (P13726 33-295 partner limits assumed): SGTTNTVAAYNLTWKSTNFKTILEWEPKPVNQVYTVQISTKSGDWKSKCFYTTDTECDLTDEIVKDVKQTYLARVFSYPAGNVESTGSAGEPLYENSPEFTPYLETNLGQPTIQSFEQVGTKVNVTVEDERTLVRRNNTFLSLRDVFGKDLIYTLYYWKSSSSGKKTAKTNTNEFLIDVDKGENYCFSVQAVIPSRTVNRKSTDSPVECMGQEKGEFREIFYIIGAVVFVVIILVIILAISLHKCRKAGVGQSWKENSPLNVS
# T5 sequence (P00742 41-179 limits assumed): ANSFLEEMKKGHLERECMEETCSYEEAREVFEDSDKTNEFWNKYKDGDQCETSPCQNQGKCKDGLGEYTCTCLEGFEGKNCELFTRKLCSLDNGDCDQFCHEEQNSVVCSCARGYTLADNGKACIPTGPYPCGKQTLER
# T5 sequence (P00742 235-488 limits assumed): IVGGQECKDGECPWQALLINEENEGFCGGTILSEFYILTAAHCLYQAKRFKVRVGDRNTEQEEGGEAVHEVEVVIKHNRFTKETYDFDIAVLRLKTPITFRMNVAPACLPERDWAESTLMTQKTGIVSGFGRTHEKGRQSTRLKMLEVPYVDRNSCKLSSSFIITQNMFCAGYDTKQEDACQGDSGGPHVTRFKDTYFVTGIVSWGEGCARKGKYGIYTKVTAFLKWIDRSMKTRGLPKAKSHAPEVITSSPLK
# T4 sequence (P03952 20-390 limits assumed): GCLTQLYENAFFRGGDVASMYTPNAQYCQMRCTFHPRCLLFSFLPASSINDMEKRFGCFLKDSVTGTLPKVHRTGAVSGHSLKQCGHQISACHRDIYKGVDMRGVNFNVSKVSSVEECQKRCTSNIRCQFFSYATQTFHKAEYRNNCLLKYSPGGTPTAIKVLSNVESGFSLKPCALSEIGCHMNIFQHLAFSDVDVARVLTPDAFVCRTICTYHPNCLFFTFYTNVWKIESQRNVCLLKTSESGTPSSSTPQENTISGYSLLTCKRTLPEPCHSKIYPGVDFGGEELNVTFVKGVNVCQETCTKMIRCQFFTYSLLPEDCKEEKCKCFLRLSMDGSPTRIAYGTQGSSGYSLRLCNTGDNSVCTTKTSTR
# T4 sequence (P03952 391-638 limits assumed): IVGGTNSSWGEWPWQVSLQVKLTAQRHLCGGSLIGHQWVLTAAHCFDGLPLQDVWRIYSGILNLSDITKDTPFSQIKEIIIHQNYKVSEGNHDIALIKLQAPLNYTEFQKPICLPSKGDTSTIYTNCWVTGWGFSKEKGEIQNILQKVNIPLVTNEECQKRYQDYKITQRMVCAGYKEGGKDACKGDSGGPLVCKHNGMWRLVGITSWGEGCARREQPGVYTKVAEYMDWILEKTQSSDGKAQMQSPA
IC50 (Coagulation factor XII),Activity (Prothrombin [1]),Activity [2],Activity (Plasma kallikrein [3]),Activity (Coagulation factor X [4]),Activity [5],IC50 [6],IC50 (Prothrombin [7]),Activity [8],IC50 (Coagulation factor X [9]),IC50 (Plasma kallikrein [10]),Activity (Prothrombin [7]),SMILES
4.4 µM,inactive,tde,inactive,inactive,inactive,–,–,–,–,–,–,O=C(Nc1ccccc1)c1cc2cc(Cl)cc(Br)c2oc1=O
31 µM,inactive,–,inactive,inactive,inactive,–,–,–,–,–,–,Cc1ccc2oc(=O)c(C(=O)Nc3cccc(Cl)c3)cc2c1
8.3 µM,inactive,–,inactive,inactive,inactive,–,–,–,–,–,–,Cc1ccc2oc(=O)c(C(=O)Nc3cnc4ccccc4c3)cc2c1
–,inactive,–,inactive,inactive,inactive,–,–,inactive,–,–,–,O=C(Oc1ccccc1)c1cc2ccccc2oc1=O
29 µM,inactive,–,inactive,inactive,inactive,–,–,–,–,–,–,Cc1ccc2oc(=O)c(C(=O)NC34CC5CC(CC(C5)C3)C4)cc2c1
–,inactive,–,–,inactive,–,> 50 µM,–,inactive,–,> 50 µM,–,CCN(CC)c1ccc2cc(C(=O)Nc3ccccc3)c(=O)oc2c1
24 µM,inactive,–,inactive,inactive,inactive,–,–,–,–,–,–,O=C(Nc1ccccc1)c1cc2cc(Br)ccc2oc1=O
30 µM,–,–,inactive,inactive,inactive,–,> 50 µM,–,–,–,–,Cc1ccc2oc(=O)c(C(=O)Nc3ccccc3Cl)cc2c1
> 50 µM,–,–,inactive,inactive,–,> 50 µM,> 50 µM,–,–,–,–,COc1cc(Br)cc2cc(C(=O)Nc3ccccc3)c(=O)oc12
10 µM,–,–,inactive,inactive,inactive,–,> 50 µM,–,–,–,–,Cc1cccc(NC(=O)c2cc3cc(C)ccc3oc2=O)c1
–,inactive,–,inactive,inactive,inactive,–,–,inactive,–,–,–,Cc1ccc2oc(=O)c(C(=O)Oc3ccccc3)cc2c1
> 50 µM,–,–,inactive,–,inactive,–,7 µM,–,> 50 µM,–,–,O=C(Oc1ccccc1)c1cc2cc(CCl)ccc2oc1=O
19 µM,inactive,–,–,inactive,inactive,–,–,–,–,> 50 µM,–,O=C(Nc1ccccc1)c1cc2cc(Cl)cc(Cl)c2oc1=O
> 50 µM,inactive,–,inactive,inactive,inactive,–,–,–,–,–,–,Cc1ccc2oc(=O)c(C(=O)NCc3ccccc3)cc2c1

# Second part, the compound before the results:
SMILES,IC50 (Coagulation factor XII),Activity (Prothrombin [1]),Activity [2],Activity (Plasma kallikrein [3]),Activity (Coagulation factor X [4]),Activity [5],IC50 [6],IC50 (Prothrombin [7]),Activity [8],IC50 (Coagulation factor X [9]),IC50 (Plasma kallikrein [10]),Activity (Prothrombin [7])
Cc1ccc(NC(=O)c2cc3cc(C)ccc3oc2=O)cc1,20 µM,–,–,inactive,inactive,–,> 50 µM,> 50 µM,–,–,–,–
Cc1ccc2oc(=O)c(C(=O)Nc3ccccc3C)cc2c1,32 µM,–,–,inactive,inactive,inactive,–,> 50 µM,–,–,–,–
Cc1ccc2oc(=O)c(C(=O)NC3CCCCC3)cc2c1,–,inactive,–,inactive,inactive,inactive,–,–,inactive,–,–,–
Cc1ccc2oc(=O)c(C(=O)NC3CCCCCCCCCCC3)cc2c1,33 µM,inactive,–,inactive,inactive,inactive,–,–,–,–,–,–
COc1ccc2cc(C(=O)Nc3ccccc3)c(=O)oc2c1,–,–,–,–,–,inactive,–,> 50 µM,inactive,> 50 µM,> 50 µM,–
Cc1ccc2oc(=O)c(C(=O)Nc3ccccc3)cc2c1,23 µM,–,–,–,inactive,inactive,–,> 50 µM,–,–,> 50 µM,–
Cc1cccc(NC(=O)c2cc3cc(Cl)cc(Br)c3oc2=O)c1,10 µM,–,–,inactive,inactive,–,> 50 µM,> 50 µM,–,–,–,–
Cc1cc(C)cc(NC(=O)c2cc3cc(Cl)cc(Cl)c3oc2=O)c1,4.3 µM,–,–,–,–,–,> 50 µM,> 50 µM,–,> 50 µM,> 50 µM,–
Cc1ccc2oc(=O)c(C(=O)NCCc3ccccc3)cc2c1,> 50 µM,inactive,–,inactive,inactive,inactive,–,–,–,–,–,–
O=C(Nc1ccccc1)c1cc2ccc(O)cc2oc1=O,–,–,–,–,–,inactive,–,> 50 µM,inactive,> 50 µM,> 50 µM,–
Cc1cc(C)cc(NC(=O)c2cc3cc(C)ccc3oc2=O)c1,9.8 µM,–,–,inactive,inactive,inactive,–,> 50 µM,–,–,–,–
Cc1cccc(NC(=O)c2cc3cc(Cl)cc(Cl)c3oc2=O)c1,25 µM,inactive,–,inactive,inactive,inactive,–,–,–,–,–,–
COc1cccc2cc(C(=O)Nc3ccccc3)c(=O)oc12,–,–,–,–,–,inactive,–,–,inactive,> 50 µM,> 50 µM,inactive
Cc1ccc2oc(=O)c(C(=O)NCc3cccc4ccccc34)cc2c1,15 µM,–,–,inactive,inactive,inactive,–,> 50 µM,–,–,–,–
O=C(Nc1ccccc1)c1cc2c(ccc3ccccc32)oc1=O,–,–,–,–,–,–,> 50 µM,> 50 µM,inactive,> 50 µM,> 50 µM,–
O=C(Nc1ccccc1)c1cc2cc(CCl)ccc2oc1=O,17 µM,–,–,inactive,–,inactive,–,> 50 µM,–,> 50 µM,–,–
O=C(Nc1ccccc1)c1cc2cc([N+](=O)[O-])ccc2oc1=O,22 µM,inactive,–,inactive,inactive,inactive,–,–,–,–,–,–
Cc1cc(C)cc(NC(=O)c2cc3cc(Cl)cc(Br)c3oc2=O)c1,32 µM,–,–,–,–,–,> 50 µM,> 50 µM,–,> 50 µM,> 50 µM,–
Cc1ccc2oc(=O)c(C(=O)NC(C)C)cc2c1,–,inactive,–,–,inactive,–,> 50 µM,–,inactive,–,> 50 µM,–
O=C(Nc1ccccc1)c1cc2ccccc2oc1=O,42 µM,inactive,–,inactive,inactive,inactive,–,–,–,–,–,–
NC(N)=NCCC[C@H](NC(=O)[C@H](Cc1ccccc1)NC(=O)[C@H]1CCCN1)C(=O)CCl (H-[dP]-Phe-Arg-CH2Cl),0.18 µM,–,–,–,–,–,1.5 µM,2.5 µM,–,1.9 µM,0.031 µM,–
Cc1ccc2oc(=O)c(C(=O)Nc3ccc(Cl)cc3)cc2c1,34 µM,–,–,inactive,inactive,inactive,–,> 50 µM,–,–,–,–
